Counter-ions that a name gives are not always drawn.
Biological target: T1, Caco-2-derived dipeptidyl peptidase IV (Homo sapiens, UniProt P27487)
T1 construct: A dipeptidyl peptidase IV crude enzyme solution was prepared from culture cell of Caco-2 (ATCC HTB-37); endogenous in cells; host or cells: Caco-2 (ATCC HTB-37)
Experiment: Determination of Caco-2-derived dipeptidyl peptidase IV inhibitory activity
Type: biochemical
Conditions: Caco-2 crude enzyme solution, substrate Gly-Pro-p-NA, 37° C., absorbance 405 nm after 0 h and 3 h
Description: 1) Preparation of Dipeptidyl Peptidase IV Crude Enzyme Solution
A dipeptidyl peptidase IV crude enzyme solution was prepared from culture cell of Caco-2 (ATCC HTB-37). The Caco-2 cells were cultured in D-MEM medium (manufactured by Nissui Pharmaceutical Co., Ltd.) containing 10% FBS (fetal calf serum (manufactured by GIBCO)). The cell extract was prepared by soaking the cells collected by removing the medium in 20 mM phosphate buffer. (pH 7.5) containing 0.5% Triton X-100, extracting for 30 min in an ice bath and separating the supernatant obtained by centrifugation 1500 g for 30 min. The cell extract (22 ml) was applied to a column of Sephadex G-200 (600 ml, manufactured by Pharmacia Corporation) equilibrated with 20 mM Tris-hydrochloride buffer (pH 7.5) and eluted with the same buffer. The elution was fractionated by 10 ml, examined for enzyme activity and 190 ml–280 ml fractions (90 ml) were collected. […]
An N,N-dimethylformamide solution (5 μl) containing the test compound was added to a mixture of water (25 μl), 1M Tris-hydrochloride buffer (10 μl, pH 7.5) and 1 mM aqueous glycylprolyl-p-nitroanilide (Gly-Pro-p-NA; manufactured by Backem AG) solution (50 μl) to prepare a mixed solution. […] The absorbance after 0 h and 3 h was measured using a microplate reader (Multiskan Bichromatic; manufactured by Labsystems) at a wavelength of 405 nm and an increase (ΔODs) was determined. […]

T1 sequence (P27487 whole entry): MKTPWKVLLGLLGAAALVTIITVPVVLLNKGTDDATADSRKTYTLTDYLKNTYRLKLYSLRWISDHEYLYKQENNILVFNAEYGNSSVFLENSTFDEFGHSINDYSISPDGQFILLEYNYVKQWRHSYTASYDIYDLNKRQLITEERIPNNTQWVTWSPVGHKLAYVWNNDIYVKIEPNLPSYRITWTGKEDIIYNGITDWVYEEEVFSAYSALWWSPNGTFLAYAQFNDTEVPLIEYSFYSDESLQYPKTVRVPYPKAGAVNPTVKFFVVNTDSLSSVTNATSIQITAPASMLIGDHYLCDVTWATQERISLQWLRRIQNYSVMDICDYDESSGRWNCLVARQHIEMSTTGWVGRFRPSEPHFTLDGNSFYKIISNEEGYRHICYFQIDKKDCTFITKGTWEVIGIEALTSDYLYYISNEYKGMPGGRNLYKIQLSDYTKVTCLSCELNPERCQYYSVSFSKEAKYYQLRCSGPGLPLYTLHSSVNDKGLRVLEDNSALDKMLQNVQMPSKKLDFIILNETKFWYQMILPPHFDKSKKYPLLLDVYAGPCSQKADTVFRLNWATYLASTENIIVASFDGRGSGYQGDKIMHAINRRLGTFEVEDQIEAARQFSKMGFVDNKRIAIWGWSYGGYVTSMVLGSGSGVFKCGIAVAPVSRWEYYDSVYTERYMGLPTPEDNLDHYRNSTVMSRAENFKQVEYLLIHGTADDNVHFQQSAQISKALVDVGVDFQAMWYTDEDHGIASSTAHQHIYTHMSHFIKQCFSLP

`CCCCOc1c(CN)n(CC(C)(C)C)c(=O)c2ccc(OCC(N)=O)cc12` [Example 95, 2-{{3-(Aminomethyl)-4-butoxy-2-neopentyl-1-oxo-1,2-dihydro-6-isoquinolinyl}oxy}acetamide hydrochloride] and `CC(=O)Nc1ccc2c(=O)n(CC(C)C)c(CN)c(-c3ccccc3)c2c1.Cl` [Example 112, 6-Acetylamino-3-aminomethyl-2-isobutyl-4-phenyl-1(2H)-isoquinolinone hydrochloride] are within 1.5-fold of each other in IC50: 280 nM for the first, 250 nM for the second.

Biological target: T2, dipeptidyl peptidase IV in rat plasma (Rattus norvegicus, UniProt P14740)
T2 construct: Plasma (20 μl) prepared from blood of SD rat by a conventional method; from tissue; host or cells: plasma of SD rat
T2 sequence (P14740 38-767 limits assumed): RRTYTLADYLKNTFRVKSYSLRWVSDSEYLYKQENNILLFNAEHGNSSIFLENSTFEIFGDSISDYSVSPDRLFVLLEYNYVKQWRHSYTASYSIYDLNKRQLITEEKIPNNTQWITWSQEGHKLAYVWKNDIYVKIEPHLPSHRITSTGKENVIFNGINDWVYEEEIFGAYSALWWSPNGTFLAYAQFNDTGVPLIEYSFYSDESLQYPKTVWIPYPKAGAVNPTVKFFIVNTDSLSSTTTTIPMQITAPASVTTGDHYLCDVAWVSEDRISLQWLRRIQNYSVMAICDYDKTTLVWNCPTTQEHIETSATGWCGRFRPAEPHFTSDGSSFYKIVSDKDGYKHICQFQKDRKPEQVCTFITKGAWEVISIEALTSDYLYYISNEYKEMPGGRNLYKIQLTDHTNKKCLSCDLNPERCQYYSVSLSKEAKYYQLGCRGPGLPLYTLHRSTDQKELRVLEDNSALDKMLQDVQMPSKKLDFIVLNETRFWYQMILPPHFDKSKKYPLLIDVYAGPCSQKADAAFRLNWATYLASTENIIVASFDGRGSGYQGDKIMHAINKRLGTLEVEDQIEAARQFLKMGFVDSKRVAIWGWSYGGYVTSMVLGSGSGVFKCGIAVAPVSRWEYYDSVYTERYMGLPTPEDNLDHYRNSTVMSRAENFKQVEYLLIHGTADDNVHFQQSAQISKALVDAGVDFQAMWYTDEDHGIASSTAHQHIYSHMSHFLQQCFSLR
Experiment: Determination of dipeptidyl peptidase IV inhibitory activity in rat plasma
Type: biochemical
Conditions: SD rat plasma, substrate Gly-Pro-p-NA, 30° C., absorbance 405 nm after 0 h and 1 h
Description: Determination of Dipeptidyl Peptidase IV Inhibitory Activity in Rat Plasma
An N,N-dimethylformamide solution (1 μl) containing the test compound was added to a mixture of water (69 μl), 1M Tris-hydrochloride buffer (10 μl, pH 7.5) and 1 mM aqueous Gly-Pro-p-NA solution (100 μl) to prepare a mixed solution. Plasma (20 μl) prepared from blood of SD rat by a conventional method was added the above-mentioned, mixed solution and the enzyme reaction was started at 30° C. The absorbance after 0 h and 1 h was measured using a microplate reader at a wavelength of 405 nm and an increase (ΔODs) was determined. At the same time, an increase (ΔODc) in absorbance of the reaction mixture without the test compound, and an increase (ΔODb) in absorbance of the reaction mixture without the test compound and the enzyme were determined and percent inhibition of dipeptidyl peptidase IV enzyme activity was calculated from the following formula: {1-[(ΔODs−ΔODb)/(ΔODc−ΔODb)]}×100

Going from `CCCCOc1c(CN)n(CC(C)(C)C)c(=O)c2ccc(OCC(N)=O)cc12` [Example 95, 2-{{3-(Aminomethyl)-4-butoxy-2-neopentyl-1-oxo-1,2-dihydro-6-isoquinolinyl}oxy}acetamide hydrochloride] to `CC(=O)Nc1ccc2c(=O)n(CC(C)C)c(CN)c(-c3ccccc3)c2c1.Cl` [Example 112, 6-Acetylamino-3-aminomethyl-2-isobutyl-4-phenyl-1(2H)-isoquinolinone hydrochloride], the IC50 rises from 180 nM to 320 nM (1.8-fold).

Test system: Wistar fatty rats
Experiment: Plasma glucose-lowering effect and insulinotropic effect in rat (oral glucose tolerance test)
Type: in vivo
Conditions: female Wistar fatty rats, 3 mg/kg orally 60 min before glucose load (1 g/kg), blood at 30 min after glucose load
Description: Plasma Glucose-lowering Effect and Insulinotropic Effect in Rat
Female Wistar fatty rats (17-week-old, 6 per group) were fasted overnight and blood was drawn from the tail vein. The plasma glucose level before administration of the test compound was measured. Then the test compound (3 mg/kg body weight/5 mL) suspended in 0.5% methyl cellulose was orally administered to the rats using a gastric tube. Oral glucose tolerance test (1 g/kg body weight/5 mL) was started 60 min later. Blood was drawn at 30 min after starting glucose load, and plasma glucose level and insulin level of the serum were measured.

With `CCCCOc1c(CN)n(CC(C)(C)C)c(=O)c2ccc(OCC(N)=O)cc12` [Example 95, 2-{{3-(Aminomethyl)-4-butoxy-2-neopentyl-1-oxo-1,2-dihydro-6-isoquinolinyl}oxy}acetamide hydrochloride] the Plasma glucose level was 82 % of control.
In the case of `CC(C)Cn1c(CN)c(-c2ccccc2)c2cc(C(N)=O)ccc2c1=O` [Example 109, 3-Aminomethyl-2-isobutyl-4-phenyl-1(2H)-isoquinolinone-6-carboxamide hydrochloride [3-(aminomethyl)-2-isobutyl-1-oxo-4-phenyl-1,2-dihydro-6-isoquinolinecarboxamide hydrochloride]], the Plasma glucose level is reported as 73 % of control.
In the case of `CC(=O)Nc1ccc2c(=O)n(CC(C)C)c(CN)c(-c3ccccc3)c2c1.Cl` [Example 112, 6-Acetylamino-3-aminomethyl-2-isobutyl-4-phenyl-1(2H)-isoquinolinone hydrochloride], the Plasma glucose level is reported as 76 % of control.

In the case of `CCCCOc1c(CN)n(CC(C)(C)C)c(=O)c2ccc(OCC(N)=O)cc12` [Example 95, 2-{{3-(Aminomethyl)-4-butoxy-2-neopentyl-1-oxo-1,2-dihydro-6-isoquinolinyl}oxy}acetamide hydrochloride], the insulin level is reported as 188 % of control.
With `CC(C)Cn1c(CN)c(-c2ccccc2)c2cc(C(N)=O)ccc2c1=O` [Example 109, 3-Aminomethyl-2-isobutyl-4-phenyl-1(2H)-isoquinolinone-6-carboxamide hydrochloride [3-(aminomethyl)-2-isobutyl-1-oxo-4-phenyl-1,2-dihydro-6-isoquinolinecarboxamide hydrochloride]] the insulin level was 205 % of control.
For `CC(=O)Nc1ccc2c(=O)n(CC(C)C)c(CN)c(-c3ccccc3)c2c1.Cl` [Example 112, 6-Acetylamino-3-aminomethyl-2-isobutyl-4-phenyl-1(2H)-isoquinolinone hydrochloride], the insulin level was 255 % of control.

Test system: not given
Experiment: not given
Conditions: not given

In the case of `Cc1ccc(-c2c(CN)n(CC(C)C)c(=O)c3ccccc23)cc1.Cl`, the melting point is reported as 178 to 180 °C (dec.).
With `CC(=O)c1ccc2c(=O)n(CC(C)C)c(CN)c(-c3ccccc3)c2c1.Cl` the melting point was 179 °C (dec.).
In the case of `CC(C)Cn1c(CN)c(-c2ccccc2)c2cc(S(C)(=O)=O)ccc2c1=O.Cl`, the melting point is reported as 209 °C (dec.).
With `CC(C)Cn1c(CN)c(-c2ccccc2)c2cc(-c3noc(=O)[nH]3)ccc2c1=O.Cl` the melting point was 253 °C (dec.).
In the case of `CC(C)Cn1c(CN)c(-c2ccccc2)c2cc([S+](C)[O-])ccc2c1=O` (centres unmarked) [Example 172, 3-(Aminomethyl)-2-isobutyl-6-(methylsulfinyl)-4-phenyl-1(2H)-isoquinolinone], the melting point is reported as 167 °C (dec.).

Compared with `CCCCOc1c(CN)n(CC2CC2)c(=O)c2ccc(-c3cnco3)cc12.Cl`, `CCCCOc1c(CN)n(CC(C)C)c(=O)c2ccc(-c3cnco3)cc12.Cl` is higher in melting point: 124 to 126 °C for the first, 211 to 213 °C for the second.

First: CCCCOc1c(CN)n(CC2CC2)c(=O)c2ccc(/C=C/C(N)=O)cc12.Cl
Second: CCCCOc1c(CN)n(CC2CC2)c(=O)c2ccc(C(N)=O)cc12.Cl (hydrate or solvate)
The melting point of the first is higher: 188 to 190 °C for the first, 164 to 165 °C for the second.

Compared with `CCCCOc1c(CN)n(CC(C)C)c(=O)c2ccc(/C=C/C(N)=O)cc12.Cl`, `CCCCOc1c(CN)n(CC(C)(C)C)c(=O)c2ccc(/C=C/C(N)=O)cc12.Cl` (hydrate or solvate) is lower in melting point: 223 to 225 °C for the first, 187 to 188 °C for the second.

First: CC(C)Cn1c(CN)c(-c2cccc(F)c2)c2cc(OCC(N)=O)ccc2c1=O.Cl
Second: CC(C)Cn1c(CN)c(-c2ccc(F)cc2)c2cc(OCC(N)=O)ccc2c1=O.Cl
The melting point of the first is higher: 209 to 210 °C for the first, 189 to 190 °C for the second.

First: CC(C)Cn1c(CN)c(-c2ccccc2)c2cc(-c3nn[nH]n3)ccc2c1=O.Cl
Second: CC(C)Cn1c(CN)c(-c2ccccc2)c2cc(-c3nsc(=O)[nH]3)ccc2c1=O.Cl
The melting point of the first is lower: 218 to 220 °C for the first, 232 to 237 °C for the second.

Compared with `CSc1ccc2c(=O)n(CC(C)C)c(CN)c(-c3ccccc3)c2c1.Cl`, `CC(C)Cn1c(CN)c(-c2ccccc2)c2cc(Br)ccc2c1=O` [Example 106, 3-Aminomethyl-6-bromo-2-isobutyl-4-phenyl-1(2H)-isoquinolinone] is lower in melting point: 252 to 255 °C for the first, 129 to 130 °C for the second.

First: CC(C)Cn1c(CN)c(-c2ccc(Cl)cc2)c2cc(O)ccc2c1=O.Cl
Second: Cc1ccc(-c2c(CN)n(CC(C)C)c(=O)c3ccc(O)cc23)cc1.Cl
The melting point of the first is lower: 247 to 249 °C for the first, 255 to 256 °C for the second.

First: CCCCOc1c(CN)n(CC(C)C)c(=O)c2ccc(C(N)=S)cc12.Cl
Second: CCCCOc1c(CN)n(CC(C)C)c(=O)c2ccc(C#N)cc12.Cl
The melting point of the first is higher: 200 to 202 °C for the first, 135 to 136 °C for the second.

First: CC(C)Cn1c(CN)c(-c2ccc(F)cc2)c2cc(/C=C/C(=O)O)ccc2c1=O.Cl
Second: CC(C)Cn1c(CN)c(-c2ccccc2)c2cc(/C=C/C(N)=O)ccc2c1=O.Cl (hydrate or solvate)
The melting point of the first is higher: 255 to 256 °C for the first, 223 to 225 °C for the second.

Compared with `CCCCOc1c(CN)n(CC(C)(C)C)c(=O)c2ccc(CC(N)=O)cc12.Cl`, `CCCCOc1c(CN)n(CC(C)(C)C)c(=O)c2ccc(OCC(N)=O)cc12` (as salt: hydrochloride) [Example 95, 2-{{3-(Aminomethyl)-4-butoxy-2-neopentyl-1-oxo-1,2-dihydro-6-isoquinolinyl}oxy}acetamide hydrochloride] is higher in melting point: 163 to 165 °C for the first, 233 to 235 °C for the second.

Compared with `CC(C)Cn1c(CN)c(-c2ccccc2)c2cc(CC#N)ccc2c1=O.Cl`, `CC(C)Cn1c(CN)c(-c2ccccc2)c2cc(Cl)ccc2c1=O` [Example 118, 3-(Aminomethyl)-6-chloro-2-isobutyl-4-phenyl-1(2H)-isoquinolinone] is lower in melting point: 142 to 144 °C for the first, 123 to 124 °C for the second.

First: CCCCOc1c(CN)n(CC(C)C)c(=O)c2ccc(NC(=O)C(C)C)cc12.Cl
Second: CCCCOc1c(CN)n(CC(C)C)c(=O)c2ccc(OCC(N)=O)cc12.Cl (hydrate or solvate)
The melting point of the first is lower: 181 to 183 °C for the first, 248 to 250 °C for the second.

First: CCCCOc1c(CN)n(CC2CC2)c(=O)c2ccc(OCC(N)=O)cc12.Cl (hydrate or solvate)
Second: CC(C)Cn1c(CN)c(OCCCC(F)(F)F)c2cc(OCC(N)=O)ccc2c1=O.Cl (hydrate or solvate)
The melting point of the first is lower: 133 to 134 °C for the first, 147 to 148 °C for the second.

Compared with `Cc1ccc(-c2c(CN)n(CC(C)C)c(=O)c3ccc(OCC(N)=O)cc23)cc1.Cl` (hydrate or solvate), `CC(C)Cn1c(CN)c(-c2ccccc2)c2cc(SCC(N)=O)ccc2c1=O` [Example 171, 2-{[3-(Aminomethyl)-2-isobutyl-1-oxo-4-phenyl-1,2-dihydro-6-isoquinolinyl]sulfanyl}acetamide] is lower in melting point: 278 to 280 °C for the first, 218 to 220 °C for the second.

Compared with `Cc1csc(-c2ccc3c(=O)n(CC(C)C)c(CN)c(-c4ccccc4)c3c2)n1` (hydrate or solvate) [Example 194, 3-(Aminomethyl)-2-isobutyl-6-(4-methyl-1,3-thiazol-2-yl)-4-phenyl-1(2H)-isoquinolinone], `CC1=NN(c2ccc3c(=O)n(CC(C)C)c(CN)c(-c4ccccc4)c3c2)CO1` [Example 166, 3-(Aminomethyl)-2-isobutyl-6-(5-methyl-1,3,4-oxadiazol-3-yl)-4-phenyl-1(2H)-isoquinolinone] is higher in melting point: 162 to 163 °C for the first, 179 to 181 °C for the second.

First: CCn1c(CN)c(-c2ccccc2)c2cc(Cl)ccc2c1=O [Example 113, 3-(Aminomethyl)-6-chloro-2-ethyl-4-phenyl-1(2H)-isoquinolinone]
Second: CC(C)(C)Cn1c(CN)c(-c2ccccc2)c2cc(Cl)ccc2c1=O [Example 122, 3-(Aminomethyl)-6-chloro-2-neopentyl-4-phenyl-1(2H)-isoquinolinone]
The melting point of the first is lower: 126 to 127 °C for the first, 173 to 174 °C for the second.

First: CC(C)Cn1c(CN)c(-c2ccccc2)c2ccccc2c1=O [Example 123, 3-(Aminomethyl)-2-isobutyl-4-phenyl-1(2H)-isoquinolinone]
Second: CC(C)Cn1c(CN)c(-c2ccc(Cl)cc2)c2ccccc2c1=O [Example 124, 3-(Aminomethyl)-4-(4-chlorophenyl)-2-isobutyl-1(2H)-isoquinolinone]
The melting point of the first is higher: 129 to 130 °C for the first, 119 to 120 °C for the second.

`CC(C)Cn1c(CN)c(-c2ccccc2)c2cc(/C=C/C(N)=O)ccc2c1=O` [Example 160, (E)-3-[3-(Aminomethyl)-2-isobutyl-1-oxo-4-phenyl-1,2-dihydro-6-isoquinolinyl]-2-propenamide] showed a melting point of 228 to 230 °C.

— patent publication US7034039B2, “Fused heterocyclic compounds” (Takeda Pharmaceutical Company Limited, priority 2001, dated 2006)
